Earlier results as cited in US20120141479A1, “Histone Deacetylase Inhibitors Sensitize Cancer Cells To Epidermal Growth Factor Inhibitors” (priority 2007, published 2012).

Test system: E-cad
Conditions: lung cancer cell lines; cited from earlier work

## CC(/C=C/C(=O)NO)=C\[C@@H](C)C(=O)c1ccc(N(C)C)cc1 [trichostatin A]
  effect of inhibiting HDAC on E-cad: activation of E-cad
